The text below walks through data of patent US11584710B2, “Compounds for treating infections” (HORITZONTS TECNOLOGICS HUNGARY KORLÁTOLT FELELOSSÉGU …, priority 2017, dated 2023).

SMILES strings stand for the structures.

Common to all, as to test: Kirby-Bauer disk diffusion susceptibility test
What all share (type): cell-based
Background: A growth-free zone around the sample is the usual read-out of agar diffusion tests.

The test system of one assay is K. pneumoniae. The settings on record: for Antibiotic activity (Table VIII, zone of inhibition): 300 μg. The method, then:
(§1) Bacterial strains, from clinical origin, were supplied by the National Center for Microbiology, Institute of Health Carlos III (Majadahonda, Madrid). They are detailed in Table 1.
(§2) Bacterial cells suspension in sterile saline was prepared from a culture of 24-72 h, depending on bacterial species, in Mueller-Hinton Agar with 5% sheep blood. Each suspension was adjusted to a fixed size inoculum of 1-5×10^8 CFU/ml with a spectrophotometer (Ferraro, MJ National Committee for Clinical Laboratory Standards. 2000).
(§3) Kirby-Bauer disk diffusion susceptibility test protocol was utilized to determine the sensitivity or resistance of pathogenic bacteria against the compounds and others antibiotics. The absence of growth around the disks is an indirect measure of the ability of this compound to inhibit an organism (Kirby, W., et al., Antibiotics Annu. 1956-1957:892). After 18 to 72 hours of incubation at 37° C., with or without CO2, under aerobic or anaerobic conditions, depending on the bacterial species, halo of growth inhibition were obtained and evaluated.
(§4) Interpretation of susceptibility and resistance was based on the presence or absence of a zone of inhibition surrounding the disk. Kirby-Bauer disk diffusion susceptibility test is a common method which uses antibiotic-impregnated wafers to test whether bacteria are affected by antibiotics. The size of the zone of inhibition depends on how effective the antibiotic is at stopping the growth of the bacterium. A stronger antibiotic will create a larger zone, because a lower concentration of the antibiotic is enough to stop growth.
(§5) All compounds were tested at 300 μg/disc.

The test system of another assay is C. difficile. The settings on record: for Antibiotic activity (Table VIII, zone of inhibition): 300 μg. The method, then: as §1, §2, §3, §4, §5
The test system of another assay is S. pneumoniae. The settings on record: for Antibiotic activity (Table VIII, zone of inhibition): 300 μg. The method, then: as §1, §2, §3, §4, §5
The next assay relates to T. pulmonis. Conditions: for Antibiotic activity (Table VIII, zone of inhibition): 300 μg. The protocol:
as §1, §2, §3, §4, §5

A further assay relates to N. carnea. Conditions: for Antibiotic activity (Table VIII, zone of inhibition): 300 μg. The method, then: as §1, §2, §3, §4, §5
The subject of a further assay is N. cyriacigeorgica. The settings on record: for Antibiotic activity (Table VIII, zone of inhibition): 300 μg. The method, then: as §1, §2, §3, §4, §5
The subject of a further assay is S. pyogenes. Conditions: 300 μg/disc. The protocol:
as §1, §2, §3, §4, §5

The test system of a further assay is S. epidermidis. Conditions: 300 μg. The method, then: as §1, §2, §3, §4, §5
The next assay relates to E. coli. Conditions: 300 μg. The method, then: as §1, §2, §3, §4, §5
The next assay relates to P. aeruginosa. Conditions: 300 μg. The method, then:
as §1, §2, §3, §4, §5

In the next assay the test system is A. baumannii. The settings on record: 300 μg. The method, then:
as §1, §2, §3, §4, §5

The test system of a further assay is E. faecium. Conditions: 300 μg. The protocol:
as §1, §2, §3, §4, §5

The subject of the next assay is E. faecalis. The settings on record: E. foecalis; 300 μg. The method, then:
as §1, §2, §3, §4, §5

For the next assay, the system named is M. abscessus. The settings on record: 300 μg. The protocol:
as §1, §2, §3, §4, §5

A further assay relates to E. cloacae. Conditions: 300 μg. The method, then: as §1, §2, §3, §4, §5

Regarding `NNC(=O)C(=O)NOc1ccccc1` [MSG-196], the “Activity detected (mm)” value with K. pneumoniae (300 μg/disc) is given as 13 mm; in the assay on C. difficile (300 μg/disc) it was 18 mm; in the assay on S. pneumoniae (300 μg/disc), 20 mm; in the assay with T. pulmonis (300 μg/disc), 22 mm; in the assay on N. carnea (300 μg/disc), 30 mm; in the assay on N. cyriacigeorgica (300 μg/disc), 34 mm. Moreover, the “Activity detected (mm)” value in the assay with S. pyogenes turned out to be 20 mm.
For the compound `NNC(=O)C(=O)NNc1ccc(OC(=O)c2ccccc2)cc1` [MSG-231], the Antibiotic activity (Table VIII, zone of inhibition) is 33 mm with S. epidermidis; 17 mm in the assay on E. coli; 10 mm with K. pneumoniae; 11 mm in the assay with P. aeruginosa; 20 mm in the assay with A. baumannii; 24 mm in the assay with C. difficile. Moreover, the Antibiotic activity (Table VIII, zone of inhibition) with S. pneumoniae was 24 mm; in the assay with T. pulmonis, 27 mm; with E. faecium it was 27 mm; in the assay on N. carnea, 38 mm; in the assay with N. cyriacigeorgica, 33 mm; in the assay on E. faecalis, 29 mm. The values for the Antibiotic activity (Table VIII, zone of inhibition) in the assay on M. abscessus and in the assay on E. cloacae were 27 mm and 10 mm, respectively.
In the case of `COc1ccccc1NNC(=O)C(=O)NN` [MSG-235], the Antibiotic activity (Table VIII, zone of inhibition) with S. epidermidis came to 27 mm; with E. coli it was 14 mm; in the assay on K. pneumoniae, 12 mm; with P. aeruginosa it was 11 mm; in the assay with A. baumannii, 15 mm; in the assay on C. difficile, 20 mm. For the same compound, the Antibiotic activity (Table VIII, zone of inhibition) with S. pneumoniae was 21 mm; in the assay with T. pulmonis, 24 mm; in the assay with E. faecium, 22 mm; in the assay on N. carnea it was 34 mm; with N. cyriacigeorgica, 29 mm; in the assay on E. faecalis, 25 mm. Moreover, the Antibiotic activity (Table VIII, zone of inhibition) stood at 23 mm in the assay with M. abscessus and 11 mm in the assay on E. cloacae.
